# In patent publication US20260265233A1, “BENZOTHIOPHENE DERIVATIVES AS RXFP1 AGONISTS” (BRISTOL-MYERS SQUIBB COMPANY, priority 2021, published 2026):
# Biological target: T1, human RXFP1 (Homo sapiens, UniProt Q9HBX9)
# T1 construct: expressed in transfected cells
# T1 sequence (Q9HBX9 1-757): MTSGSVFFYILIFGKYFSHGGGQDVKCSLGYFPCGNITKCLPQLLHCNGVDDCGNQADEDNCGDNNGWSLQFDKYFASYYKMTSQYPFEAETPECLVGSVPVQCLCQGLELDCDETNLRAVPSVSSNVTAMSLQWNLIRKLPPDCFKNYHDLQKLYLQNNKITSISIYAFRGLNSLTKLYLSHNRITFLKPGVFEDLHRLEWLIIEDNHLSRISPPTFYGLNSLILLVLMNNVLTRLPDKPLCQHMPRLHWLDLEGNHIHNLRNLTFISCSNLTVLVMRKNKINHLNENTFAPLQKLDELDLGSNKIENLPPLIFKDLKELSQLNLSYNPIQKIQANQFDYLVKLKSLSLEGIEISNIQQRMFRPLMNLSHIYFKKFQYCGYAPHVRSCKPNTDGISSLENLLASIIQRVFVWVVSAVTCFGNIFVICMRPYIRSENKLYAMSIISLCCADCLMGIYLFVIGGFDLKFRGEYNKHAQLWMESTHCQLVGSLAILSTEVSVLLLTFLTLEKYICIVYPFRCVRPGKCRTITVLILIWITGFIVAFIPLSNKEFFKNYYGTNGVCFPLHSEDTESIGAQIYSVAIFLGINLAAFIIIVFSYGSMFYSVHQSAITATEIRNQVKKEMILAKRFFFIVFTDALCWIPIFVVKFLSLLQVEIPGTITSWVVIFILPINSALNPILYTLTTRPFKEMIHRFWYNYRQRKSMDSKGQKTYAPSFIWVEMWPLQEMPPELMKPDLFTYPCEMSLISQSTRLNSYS
# Experiment: hRXFP1 HEK293 cAMP assay (HTRF)
# Assay type: cell-based
# Details: HEK293 cells stably expressing human RXFP1; 30 min at rt; intracellular cAMP by HTRF
# In short: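 Agonism is measured as cAMP by HTRF, quantified from a standard curve via the 665/590 nm ratio and fitted with a four-parameter logistic equation. Compounds (0.010 nM to 50 μM final, 2% DMSO) were applied for 30 min at rt to human RXFP1-expressing HEK293 cells in assay buffer containing 0.5 mM IBMX.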
row,Structure (SMILES),EC50
1,"CNC(=O)CN1CCCC(c2ccc(OC)c(C(=O)Nc3c(C(=O)Nc4ccc(F)c(C(F)(F)F)c4)sc4cc(C(F)(F)F)ccc34)c2)C1 (stereo not drawn) [Example 78, N-(4-fluoro-3-(trifluoromethyl)phenyl)-3-(2-methoxy-5-(1-(2-(methylamino)-2-oxoethyl)piperidin-3-yl)benzamido)-6-(trifluoromethyl) benzo[b] thiophene-2-carboxamide]",835 nM
2,"COc1ccc(C2CCCN(C(=O)OC(C)(C)C)C2)cc1C(=O)Nc1c(C(=O)Nc2ccc(F)c(C(F)(F)F)c2)sc2cc(C(F)(F)F)ccc12 (stereo not drawn) [Example 79, tert-butyl 3-(3-((2-((4-fluoro-3-(trifluoromethyl)phenyl)carbamoyl)-6-(trifluoromethyl)benzo[b]thiophen-3-yl)carbamoyl)-4-methoxyphenyl) piperidine-1-carboxylate]",390 nM
3,"COC(=O)C(=O)N1CCCC(c2ccc(OC)c(C(=O)Nc3c(C(=O)Nc4ccc(F)c(C(F)(F)F)c4)sc4cc(C(F)(F)F)ccc34)c2)C1 (stereo not drawn) [Example 80, methyl 2-(3-(3-((2-((4-fluoro-3-(trifluoromethyl)phenyl)carbamoyl)-6-(trifluoromethyl)benzo[b]thiophen-3-yl)carbamoyl)-4-methoxyphenyl)piperidin-1-yl)-2-oxoacetate]",237 nM
4,"COc1ccc(C2CCCN(C(=O)C(=O)O)C2)cc1C(=O)Nc1c(C(=O)Nc2ccc(F)c(C(F)(F)F)c2)sc2cc(C(F)(F)F)ccc12 (stereo not drawn) [Example 81, 2-(3-(3-((2-((4-fluoro-3-(trifluoromethyl)phenyl)carbamoyl)-6-(trifluoromethyl)benzo[b]thiophen-3-yl)carbamoyl)-4-methoxyphenyl)piperidin-1-yl)-2-oxoacetic acid]",203 nM
5,"COc1ccc(C2CCCN(CC(N)=O)C2)cc1C(=O)Nc1c(C(=O)Nc2ccc(F)c(C(F)(F)F)c2)sc2cc(C(F)(F)F)ccc12 (stereo not drawn) [Example 83, 3-(5-(1-(2-amino-2-oxoethyl)piperidin-3-yl)-2-methoxy-benzamido)-N-(4-fluoro-3-(trifluoromethyl)phenyl)-6-(trifluoromethyl) benzo[b] thiophene-2-carboxamide]",608 nM
6,"COc1ccc(C2CCCN(C3COC3)C2)cc1C(=O)Nc1c(C(=O)Nc2ccc(F)c(C(F)(F)F)c2)sc2cc(C(F)(F)F)ccc12 (stereo not drawn) [Example 84, N-(4-fluoro-3-(trifluoromethyl)phenyl)-3-(2-methoxy-5-(1-(oxetan-3-yl)piperidin-3-yl)benzamido)-6-(trifluoromethyl) benzo[b] thiophene-2-carboxamide]",226 nM
7,"COc1ccc(C2CCCN(CCO)C2)cc1C(=O)Nc1c(C(=O)Nc2ccc(F)c(C(F)(F)F)c2)sc2cc(C(F)(F)F)ccc12 (stereo not drawn) [Example 85, N-(4-fluoro-3-(trifluoromethyl)phenyl)-3-(5-(1-(2-hydroxyethyl)piperidin-3-yl)-2-methoxy-benzamido)-6-(trifluoromethyl) benzo[b] thiophene-2-carboxamide]",1110 nM
8,"COc1ccc(C2CCCN(CC(O)CO)C2)cc1C(=O)Nc1c(C(=O)Nc2ccc(F)c(C(F)(F)F)c2)sc2cc(C(F)(F)F)ccc12 (stereo not drawn) [Example 88, 3-(5-(1-(2,3-dihydroxypropyl)piperidin-3-yl)-2-methoxy-benzamido)-N-(4-fluoro-3-(trifluoromethyl)phenyl)-6-(trifluoromethyl) benzo[b] thiophene-2-carboxamide]",1540 nM
9,"COc1ccc(C2CCCN(CC(C)C)C2)cc1C(=O)Nc1c(C(=O)Nc2ccc(F)c(C(F)(F)F)c2)sc2cc(C(F)(F)F)ccc12 (stereo not drawn) [Example 89, N-(4-fluoro-3-(trifluoromethyl)phenyl)-3-(5-(1-isobutylpiperidin-3-yl)-2-methoxy-benzamido)-6-(trifluoromethyl) benzo[b] thiophene-2-carboxamide]",2180 nM
10,"COc1ccc(C2CCCN(CCCO)C2)cc1C(=O)Nc1c(C(=O)Nc2ccc(F)c(C(F)(F)F)c2)sc2cc(C(F)(F)F)ccc12 (stereo not drawn) [Example 90, N-(4-fluoro-3-(trifluoromethyl)phenyl)-3-(5-(1-(3-hydroxypropyl)piperidin-3-yl)-2-methoxy-benzamido)-6-(trifluoromethyl) benzo[b] thiophene-2-carboxamide]",1580 nM
11,"COc1ccc(C2CCCN(C(=O)C(C)(C)O)C2)cc1C(=O)Nc1c(C(=O)Nc2ccc(F)c(C(F)(F)F)c2)sc2cc(C(F)(F)F)ccc12 (stereo not drawn) [Example 92, N-[4-fluoro-3-(trifluoromethyl)phenyl]-3-{5-[1-(2-hydroxy-2-methylpropanoyl)piperidin-3-yl]-2-methoxy-benzamido}-6-(trifluoromethyl)-1-benzothiophene-2-carboxamide]",165 nM
12,"COC(=O)C(=O)N1CCCC(c2ccc(OC)c(C(=O)Nc3c(C(=O)Nc4ccc(F)c(C(F)(F)F)c4)sc4cc(C(F)(F)F)ccc34)c2)C1 (stereo not drawn) [Example 94, methyl 2-(3-(3-((2-((4-fluoro-3-(trifluoromethyl)phenyl)carbamoyl)-6-(trifluoromethyl)benzo[b]thiophen-3-yl)carbamoyl)-4-methoxyphenyl)piperidin-1-yl)-2-oxoacetate]",245 nM
13,"COc1ccc(C2CCCN(C(=O)CN(C)C)C2)cc1C(=O)Nc1c(C(=O)Nc2ccc(F)c(C(F)(F)F)c2)sc2cc(C(F)(F)F)ccc12 (stereo not drawn) [Example 95, 3-(5-(1-(dimethylglycyl)piperidin-3-yl)-2-methoxy-benzamido)-N-(4-fluoro-3-(trifluoromethyl)phenyl)-6-(trifluoromethyl) benzo[b] thiophene-2-carboxamide]",870 nM
14,"COc1ccc(C2CCCN(C(=O)CN)C2)cc1C(=O)Nc1c(C(=O)Nc2ccc(F)c(C(F)(F)F)c2)sc2cc(C(F)(F)F)ccc12 (stereo not drawn) [Example 96, N-(4-fluoro-3-(trifluoromethyl)phenyl)-3-(5-(1-glycylpiperidin-3-yl)-2-methoxy-benzamido)-6-(trifluoromethyl) benzo[b] thiophene-2-carboxamide]",324 nM
15,"COc1ccc(C2CCCN(C3COC3)C2)cc1C(=O)Nc1c(C(=O)Nc2ccc(F)c(C(F)(F)F)c2)sc2cc(C(F)(F)F)ccc12 (stereo not drawn) [Example 97, N-(4-fluoro-3-(trifluoromethyl)phenyl)-3-(2-methoxy-5-(1-(oxetan-3-yl)piperidin-3-yl)benzamido)-6-(trifluoromethyl) benzo[b] thiophene-2-carboxamide]",607 nM
16,"COc1ccc(C2CCCN(C(=O)C3CCC3)C2)cc1C(=O)Nc1c(C(=O)Nc2ccc(F)c(C(F)(F)F)c2)sc2cc(C(F)(F)F)ccc12 (stereo not drawn) [Example 98, 3-(5-(1-(cyclobutane-carbonyl)piperidin-3-yl)-2-methoxy-benzamido)-N-(4-fluoro-3-(trifluoromethyl)phenyl)-6-(trifluoromethyl) benzo[b] thiophene-2-carboxamide]",186 nM
17,"CNC(=O)CN1CCCC(c2ccc(OC)c(C(=O)Nc3c(C(=O)Nc4ccc(F)c(C(F)(F)F)c4)sc4cc(C(F)(F)F)ccc34)c2)C1 (stereo not drawn) [Example 99, N-(4-fluoro-3-(trifluoromethyl)phenyl)-3-(2-methoxy-5-(1-(2-(methylamino)-2-oxoethyl)piperidin-3-yl)benzamido)-6-(trifluoromethyl) benzo[b] thiophene-2-carboxamide]",1370 nM
18,"COc1ccc(C2CCCN(CCS(C)(=O)=O)C2)cc1C(=O)Nc1c(C(=O)Nc2ccc(F)c(C(F)(F)F)c2)sc2cc(C(F)(F)F)ccc12 (stereo not drawn) [Example 100, N-(4-fluoro-3-(trifluoromethyl)phenyl)-3-(2-methoxy-5-(1-(2-(methylsulfonyl)ethyl)piperidin-3-yl)benzamido)-6-(trifluoromethyl) benzo[b] thiophene-2-carboxamide]",2010 nM
19,"COc1ccc(C2CCCN(CC(O)CO)C2)cc1C(=O)Nc1c(C(=O)Nc2ccc(F)c(C(F)(F)F)c2)sc2cc(C(F)(F)F)ccc12 (stereo not drawn) [Example 102, 3-(5-(1-(2,3-dihydroxypropyl)piperidin-3-yl)-2-methoxy-benzamido)-N-(4-fluoro-3-(trifluoromethyl)phenyl)-6-(trifluoromethyl) benzo[b] thiophene-2-carboxamide]",2230 nM
20,"COc1ccc(C2CCCN(C(=O)C(C)(C)O)C2)cc1C(=O)Nc1c(C(=O)Nc2ccc(F)c(C(F)(F)F)c2)sc2cc(C(F)(F)F)ccc12 (stereo not drawn) [Example 104, N-[4-fluoro-3-(trifluoromethyl)phenyl]-3-{5-[1-(2-hydroxy-2-methylpropanoyl)piperidin-3-yl]-2-methoxy-benzamido}-6-(trifluoromethyl)-1-benzothiophene-2-carboxamide]",277 nM
21,"COc1ccc(C2CC3(C2)CN(C2COC2)C3)cc1C(=O)Nc1c(C(=O)Nc2ccc(F)c(C(F)(F)F)c2)sc2cc(C(F)(F)F)ccc12 [Example 106, N-(4-fluoro-3-(trifluoromethyl)phenyl)-3-(2-methoxy-5-(2-(oxetan-3-yl)-2-azaspiro[3.3]heptan-6-yl)benzamido)-6-(trifluoromethyl) benzo[b] thiophene-2-carboxamide]",248 nM
